Measurements taken from US20230184770A1, “Exosome Analysis And Brain Tumors” (Institute For Cancer Research d/b/a The Research Institute …, priority 2020, published 2023).

Tests used:
[1] = tested on: MB-luciferase cells injected into the cerebellum; assay: In vivo bioluminescence imaging of MB-luciferase tumor growth in NSG mice; design: species or system mouse
Description: MB-luciferase cells were generated and stereotaxically injected into the cerebellum of 6- to 8-week-old NSG mice. Animals were monitored weekly using in vivo bioluminescence imaging and bioluminescence was detected as Day 0. The tumor-bearing mice were treated with vismodegib (50 mg/kg) for 7 days. These mice were separated into two groups randomly, one group was treated with a vehicle and another group was treated with GW4869 (1.25 mg/kg per day) for 3 weeks (FIG. 9A). They were monitored weekly using in vivo bioluminescence imaging (FIG. 9B).

[2] = tested on: medulloblastoma cells from Ptch1−/− mice; assay: Medulloblastoma cell proliferation, 48 h treatment (Ki67 immunocytochemistry); format: cell-based, mouse
Description: (§1) To examine the functions of exosomes in medulloblastoma cell proliferation, tumor cells from Ptch1^−/− mice were isolated and treated with GW4869 or DMSO for 48 hours. […] To determine whether tumor cell-derived exosomes mediate vismodegib resistance, exosomes from medulloblastoma cells were collected and treated with 200 nM of vismodegib for 48 hours. Medulloblastoma cells from Ptch1^−/− mice were treated with DMSO, vismodegib, or vismodegib together with tumor cell-derived exosomes for 48 hours. Following treatment, medulloblastoma cells were harvested to examine their proliferation by immunocytochemistry (see, FIG. 4). […] Finally, exosomes from medulloblastoma cells were harvested and treated with DMSO or vismodegib for 48 hours.

[3] = tested on: Gli1 mRNA (shh signaling) in medulloblastoma cells; assay: Gli1 mRNA levels in MB cells by q-PCR; format: cell-based, mouse; settings: MB cells after 48 hours treatment
Description: as §1

[4] = tested on: Ras protein in exosomes derived from medulloblastoma cells; assay: Western blotting of Ras in exosomes from treated MB cells; format: cell-based, mouse; settings: exosomes from MB cells treated with DMSO or vismodegib for 48 hours
Description: as §1

Structure (SMILES) | tumor growth (bioluminescence) after 28 days, with vs without GW4869 ([1]; after vismodegib 50 mg/kg 7 days, GW4869 1.25 mg/kg per day 3 weeks vs vehicle, p<0.05) | medulloblastoma cell proliferation ([2]; tumor cells from Ptch1−/− mice, GW4869 vs DMSO, data not shown) | Gli1 mRNA levels [3] | Ras protein in exosomes [4] | tumor growth (bioluminescence) ([1]; vismodegib 50 mg/kg for 7 days) | medulloblastoma cell proliferation (Ki67+ cells) ([2]; MB cells from Ptch1−/− mice, DMSO vs vismodegib vs vismodegib + exosomes, exosome-donor cells vismodegib 200 nM)
Cl.Cl.O=C(C=Cc1ccc(C=CC(=O)Nc2ccc(C3=NCCN3)cc2)cc1)Nc1ccc(C2=NCCN2)cc1 [GW4869, N,N′-Bis[4-(4,5-dihydro-1H-imidazol-2-yl)phenyl]-3,3′-p-phenylene-bis-acrylamide dihydrochloride] | significant difference | significantly repressed medulloblastoma cell proliferation |  |  |  | 
CS(=O)(=O)c1ccc(C(=O)Nc2ccc(Cl)c(-c3ccccn3)c2)c(Cl)c1 [vismodegib] |  |  | decreased | readily detected | significantly reduce tumor growth | significantly repressed tumor cell proliferation
